Earlier results as cited in patent publication US20050182128A1, “Use of anethole dithiolethione in lung cancer chemoprevention” (priority 2002, published 2005).

Tests used:
metaplasia = metaplasia as intermediate endpoint biomarker; cited from earlier work
[1] = system: glutathione-S-transferase (GST); details: rat model of hepatoma; p<0.01; cited from earlier work
[2] = in vivo; cited from earlier work
aflatoxins = details: in vivo; cited from earlier work

| Compound | Chemopreventive efficacy (metaplasia) | Mean GST levels in the liver [1] | Toxicity in chemoprevention [2] | Phase I activation of aflatoxins (aflatoxins) | Phase II conjugation of aflatoxin (aflatoxins) |
| --- | --- | --- | --- | --- | --- |
| CC1=C(/C=C/C(C)=C/C=C/C(C)=C/C(=O)Nc2ccc(O)cc2)C(C)(C)CCC1 [N-(4-Hydroxyphenyl)retinamide] | not found to be effective | – | – | – | – |
| Cc1c(-c2cnccn2)ssc1=S [Oltipraz, 5-(2-pyrazinyl)-4-methyl-1,2-dithiol-3-thione] | – | statistically increased | too toxic for chemoprevention | inhibited phase I activation of aflatoxins | increased phase II conjugation of aflatoxin |
| CC1=C(/C=C/C(C)=C/C=C/C(C)=C\C(=O)O)C(C)(C)CCC1 [isotretinoin] | not found to be effective | – | – | – | – |
